Source: ChEMBL document CHEMBL4017463, “Practical application of 3-substituted-2,6-difluoropyridines in drug discovery: Facile synthesis of novel protein kinase C theta inhibitors” (Bioorg Med Chem Lett, 2017)

Molecular target: Protein kinase C theta type (Homo sapiens, UniProt Q04759)
Assay: Inhibition of N-terminal FLAG-tagged PKCtheta (unknown origin) expressed in baculovirus expression system using fluorescein-PKC as substrate preincubated for 5 mins followed by substrate addition measured after 60 mins in presence of ATP by Lathascreen TR-FRET assay

Chain of Protein kinase C theta type (Q04759 whole entry): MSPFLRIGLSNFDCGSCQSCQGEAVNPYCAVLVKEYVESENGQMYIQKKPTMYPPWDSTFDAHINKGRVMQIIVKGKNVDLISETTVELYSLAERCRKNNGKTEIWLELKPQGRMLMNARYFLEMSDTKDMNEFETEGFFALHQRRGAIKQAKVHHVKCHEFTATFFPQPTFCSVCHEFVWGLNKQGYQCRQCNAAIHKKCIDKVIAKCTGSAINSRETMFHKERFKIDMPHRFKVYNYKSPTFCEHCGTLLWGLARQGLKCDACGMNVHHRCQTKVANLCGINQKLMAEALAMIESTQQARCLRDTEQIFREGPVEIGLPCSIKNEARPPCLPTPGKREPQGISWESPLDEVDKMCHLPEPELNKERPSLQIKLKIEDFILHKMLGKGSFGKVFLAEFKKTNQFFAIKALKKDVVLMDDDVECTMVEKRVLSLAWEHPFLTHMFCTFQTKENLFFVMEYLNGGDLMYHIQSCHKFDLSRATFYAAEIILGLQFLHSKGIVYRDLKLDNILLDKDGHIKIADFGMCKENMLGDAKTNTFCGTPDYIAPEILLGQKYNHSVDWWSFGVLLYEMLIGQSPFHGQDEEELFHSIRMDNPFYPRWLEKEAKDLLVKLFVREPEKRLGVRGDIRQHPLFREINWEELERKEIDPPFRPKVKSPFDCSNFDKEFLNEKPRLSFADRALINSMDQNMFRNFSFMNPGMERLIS

Structure (SMILES) | IC50 [nM]
O=c1[nH]c2ncccc2n1-c1nc(N2CCCNCC2)ccc1F | 100
O=c1[nH]c2ncccc2n1-c1nc(N2CCCNCC2)ccc1Cl | 18
CCOc1ccnc2[nH]c(=O)n(-c3nc(N4CCCNCC4)ccc3Cl)c12 | 0.086
O=c1[nH]c2ncccc2n1-c1nc(N2CCCC(C(O)C3CC3)C2)ccc1F (stereo unspecified) | > 1000
CN1CCCCOc2ccnc3[nH]c(=O)n(c23)-c2nc1ccc2Cl | 0.87
CN1CCCOc2ccnc3[nH]c(=O)n(c23)-c2nc1ccc2Cl | 6.7
O=c1[nH]c2nccc3c2n1-c1nc(ccc1Cl)OCCCCO3 | 14
CC(C)CC1CCCN1c1ccc(F)c(-n2c(=O)[nH]c3ncccc32)n1 (racemic) | 250
CC(C)(C)OC(=O)N1CCN(c2ccc([N+](=O)[O-])c(-n3c(=O)[nH]c4ncccc43)n2)C(c2ccccc2)C1 (racemic) | 0.18
N#Cc1ccc(N2CCNCC2c2ccccc2)nc1-n1c(=O)[nH]c2ncccc21 (racemic) | 6.3
COc1ccnc2[nH]c(=O)n(-c3nc(N4CCNC(c5ccccc5)C4)ccc3Cl)c12 (racemic) | 33
